# Where two headings read alike, the source gives them in different places.
# How the values were obtained:
# Format in all cases: cell-based
# [1] = test system: AsPC-1 (K-Ras G12D); experiment: Potency assay: pERK in AsPC-1 cells; conditions: Homo sapiens
# [2] = test system: NCI-H358 (K-Ras G12C); experiment: CellTiter-Glo cell viability assay, H358; conditions: Homo sapiens, NCI-H358, 120 h
# Procedure, shortened: (§1)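 Percent-of-DMSO luminescence values (CellTiter-Glo, day 5, plates equilibrated ~30 minutes at ambient temperature) were curve-fitted using a 4-parameter logistic equation; compounds had been added straight into wells containing the cells.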
# [3] = test system: AsPC-1 (K-Ras G12D); experiment: CellTiter-Glo cell viability assay, AsPC-1; conditions: Homo sapiens, ASPC1, 120 h
# Procedure, shortened: as §1
# [4] = ASPC1, AsPC-1 cells, K-Ras G12D, read-out: pERK EC50 (AsPC-1 KRAS G12D)
# [5] = NCI-H358, K-Ras G12C, 5-day treatment, read-out: H358 Cell Viability IC50
# [6] = AsPC-1, K-Ras G12D, 5-day treatment, read-out: AsPC-1 Cell Viability IC50
# [7] = ASPC1, read-out: pERK EC50 (AsPC-1 KRAS G12D)
# [8] = read-out: H358 Cell Viability IC50, NCI-H358, K-Ras G12C, 5-day treatment
# [9] = read-out: AsPC-1 Cell Viability IC50, AsPC-1, K-Ras G12D, 5-day treatment
SMILES,"EC50 [1, 4] [nM]","IC50 [2, 5] [nM]","IC50 [3, 6] [nM]","EC50 [1, 7] [nM]","IC50 [2, 8] [nM]","IC50 [3, 9] [nM]"
CCn1c(-c2cccnc2[C@H](C)OC)c2c3cc(ccc31)-c1cc(O)cc(c1)C[C@H](NC(=O)[C@H](C(C)C)N(C)C(=O)[C@H]1CCCN(C(=O)[C@@H]3CN3)C1)C(=O)N1CCC[C@H](N1)C(=O)OCC(C)(C)C2 [Compound 236],< 5000,< 10,1000 to 10000,,,
CCn1c(-c2cccnc2[C@H](C)OC)c2c3cc(ccc31)-c1cc(O)cc(c1)C[C@H](NC(=O)[C@H](C(C)C)N(C)C(=O)[C@@]1(C)CCCN1C(=O)[C@H]1CN1)C(=O)N1CCC[C@H](N1)C(=O)OCC(C)(C)C2 [Compound 239],< 5000,10 to 100,100 to 1000,,,
CCn1c(-c2cccnc2[C@H](C)OC)c2c3cc(ccc31)-c1cc(O)cc(c1)C[C@H](NC(=O)[C@H](C(C)C)N(C)C(=O)[C@]1(C)CCCN1C(=O)[C@H]1CN1)C(=O)N1CCC[C@H](N1)C(=O)OCC(C)(C)C2 [Compound 243],< 5000,100 to 1000,100 to 1000,,,
CCn1c(-c2cccnc2[C@H](C)OC)c2c3cc(ccc31)-c1cc(O)cc(c1)C[C@H](NC(=O)[C@H](C(C)C)N(C)C(=O)[C@@H]1CO[C@H](C)CN1C(=O)[C@H]1CN1)C(=O)N1CCC[C@H](N1)C(=O)OCC(C)(C)C2 [Compound 248],< 5000,10 to 100,100 to 1000,,,
CCn1c(-c2cccnc2[C@H](C)OC)c2c3cc(ccc31)-c1cc(O)cc(c1)C[C@H](NC(=O)[C@H](C(C)C)N(C)C(=O)[C@@H]1CO[C@H](C)CN1C(=O)[C@@H]1CN1)C(=O)N1CCC[C@H](N1)C(=O)OCC(C)(C)C2 [Compound 249],< 5000,10 to 100,10 to 100,,,
CCn1c(-c2cccnc2[C@H](C)OC)c2c3cc(ccc31)-c1cc(O)cc(c1)C[C@H](NC(=O)[C@H](C(C)C)N(C)C(=O)CN(C)C(=O)[C@@]1(C)CN1)C(=O)N1CCC[C@H](N1)C(=O)OCC(C)(C)C2 [Compound 256],,,,< 5000,10 to 100,100 to 1000
CCn1c(-c2cccnc2[C@H](C)OC)c2c3cc(ccc31)-c1cc(O)cc(c1)C[C@H](NC(=O)[C@H](C(C)C)N(C)C(=O)CN(C)C(=O)[C@]1(C)CN1)C(=O)N1CCC[C@H](N1)C(=O)OCC(C)(C)C2 [Compound 257],,,,< 5000,10 to 100,100 to 1000
CCn1c(-c2cccnc2[C@H](C)OC)c2c3cc(ccc31)-c1cc(O)cc(c1)C[C@H](NC(=O)[C@H](C(C)C)N(C)C(=O)CN(C)C(=O)[C@@H]1N[C@@H]1C(F)(F)F)C(=O)N1CCC[C@H](N1)C(=O)OCC(C)(C)C2 [Compound 258],,,,< 5000,10 to 100,100 to 1000
CCn1c(-c2cccnc2[C@H](C)OC)c2c3cc(ccc31)-c1cc(O)cc(c1)C[C@H](NC(=O)[C@H](C(C)C)N(C)C(=O)CN(C)C(=O)[C@H]1N[C@H]1C(F)(F)F)C(=O)N1CCC[C@H](N1)C(=O)OCC(C)(C)C2 [Compound 259],,,,< 5000,10 to 100,100 to 1000
CCn1c(-c2cccnc2[C@H](C)OC)c2c3cc(ccc31)-c1cc(O)cc(c1)C[C@H](NC(=O)[C@H](C(C)C)N(C)C(=O)CN(C)C(=O)[C@@H]1N[C@H]1C(F)(F)F)C(=O)N1CCC[C@H](N1)C(=O)OCC(C)(C)C2 [Compound 260],,,,< 5000,10 to 100,100 to 1000
CCn1c(-c2cccnc2[C@H](C)OC)c2c3cc(ccc31)-c1cc(O)cc(c1)C[C@H](NC(=O)[C@H](C(C)C)N(C)C(=O)CN(C)C(=O)[C@H]1N[C@@H]1C(F)(F)F)C(=O)N1CCC[C@H](N1)C(=O)OCC(C)(C)C2 [Compound 261],,,,< 5000,< 10,100 to 1000
CC[C@H]1N[C@H]1C(=O)N(C)CC(=O)N(C)[C@H](C(=O)N[C@H]1Cc2cc(O)cc(c2)-c2ccc3c(c2)c(c(-c2cccnc2[C@H](C)OC)n3CC)CC(C)(C)COC(=O)[C@@H]2CCCN(N2)C1=O)C(C)C [Compound 262],,,,< 5000,10 to 100,100 to 1000
CC[C@@H]1N[C@@H]1C(=O)N(C)CC(=O)N(C)[C@H](C(=O)N[C@H]1Cc2cc(O)cc(c2)-c2ccc3c(c2)c(c(-c2cccnc2[C@H](C)OC)n3CC)CC(C)(C)COC(=O)[C@@H]2CCCN(N2)C1=O)C(C)C [Compound 263],,,,< 5000,10 to 100,100 to 1000
CCn1c(-c2cccnc2[C@H](C)OC)c2c3cc(ccc31)-c1cc(O)cc(c1)C[C@H](NC(=O)[C@H](C(C)C)N(C)C(=O)CN(C)C(=O)[C@@H]1N[C@@H]1C(C)C)C(=O)N1CCC[C@H](N1)C(=O)OCC(C)(C)C2 [Compound 264],,,,< 5000,10 to 100,100 to 1000
CCn1c(-c2cccnc2[C@H](C)OC)c2c3cc(ccc31)-c1cc(O)cc(c1)C[C@H](NC(=O)[C@H](C(C)C)N(C)C(=O)CN(C)C(=O)[C@H]1N[C@H]1C(C)C)C(=O)N1CCC[C@H](N1)C(=O)OCC(C)(C)C2 [Compound 265],,,,< 5000,10 to 100,100 to 1000
CCn1c(-c2cccnc2[C@H](C)OC)c2c3cc(ccc31)-c1cc(O)cc(c1)C[C@H](NC(=O)[C@H](C(C)C)N(C)C(=O)CN(C)C(=O)[C@H]1CN1CCCOC(C)=O)C(=O)N1CCC[C@H](N1)C(=O)OCC(C)(C)C2 (stereo partly drawn) [Compound 266],,,,< 5000,< 10,100 to 1000
CCn1c(-c2cccnc2[C@H](C)OC)c2c3cc(ccc31)-c1cc(O)cc(c1)C[C@H](NC(=O)[C@H](C(C)C)N(C)C(=O)CN(C)C(=O)[C@H]1CN1CC(=O)N(C)C)C(=O)N1CCC[C@H](N1)C(=O)OCC(C)(C)C2 (stereo partly drawn) [Compound 270],,,,< 5000,10 to 100,100 to 1000
CCn1c(-c2cccnc2[C@H](C)OC)c2c3cc(ccc31)-c1cc(O)cc(c1)C[C@H](NC(=O)[C@H](C(C)C)N(C)C(=O)CN(C)C(=O)[C@H]1CN1CCCC#N)C(=O)N1CCC[C@H](N1)C(=O)OCC(C)(C)C2 (stereo partly drawn) [Compound 273],,,,< 5000,< 10,100 to 1000
CCn1c(-c2cccnc2[C@H](C)OC)c2c3cc(ccc31)-c1cc(O)cc(c1)C[C@H](NC(=O)[C@H](C(C)C)N(C)C(=O)CN(C)C(=O)[C@@H]1CN1CCCC#N)C(=O)N1CCC[C@H](N1)C(=O)OCC(C)(C)C2 (stereo partly drawn) [Compound 274],,,,< 5000,< 10,100 to 1000
CCn1c(-c2cccnc2[C@H](C)OC)c2c3cc(ccc31)-c1cc(O)cc(c1)C[C@H](NC(=O)[C@H](C(C)C)N(C)C(=O)CN(C)C(=O)[C@@H]1CN1C1COC1)C(=O)N1CCC[C@H](N1)C(=O)OCC(C)(C)C2 (stereo partly drawn) [Compound 276],,,,< 5000,10 to 100,1000 to 10000
CCn1c(-c2cccnc2[C@H](C)OC)c2c3cc(ccc31)-c1cc(O)cc(c1)C[C@H](NC(=O)[C@H](C(C)C)N(C)C(=O)CN(C)C(=O)[C@H]1CN1CC1COC1)C(=O)N1CCC[C@H](N1)C(=O)OCC(C)(C)C2 (stereo partly drawn) [Compound 277],,,,< 5000,10 to 100,100 to 1000
CCn1c(-c2cccnc2[C@H](C)OC)c2c3cc(ccc31)-c1cc(O)cc(c1)C[C@H](NC(=O)[C@H](C(C)C)N(C)C(=O)CN(C)C(=O)[C@H]1CN1CC1(C)COC1)C(=O)N1CCC[C@H](N1)C(=O)OCC(C)(C)C2 (stereo partly drawn) [Compound 279],,,,< 5000,< 10,100 to 1000
CCn1c(-c2cccnc2[C@H](C)OC)c2c3cc(ccc31)-c1cc(O)cc(c1)C[C@H](NC(=O)[C@H](C(C)C)N(C)C(=O)CN(C)C(=O)[C@@H]1CN1CC1(C)COC1)C(=O)N1CCC[C@H](N1)C(=O)OCC(C)(C)C2 (stereo partly drawn) [Compound 280],,,,< 5000,< 10,1000 to 10000
CCn1c(-c2cccnc2[C@H](C)OC)c2c3cc(ccc31)-c1cc(O)cc(c1)C[C@H](NC(=O)[C@H](C(C)C)N(C)C(=O)CN(C)C(=O)[C@@H]1N[C@H]1C1COC1)C(=O)N1CCC[C@H](N1)C(=O)OCC(C)(C)C2 [Compound 283],,,,< 5000,10 to 100,100 to 1000
CCn1c(-c2cccnc2[C@H](C)OC)c2c3cc(ccc31)-c1cc(O)cc(c1)C[C@H](NC(=O)[C@H](C(C)C)N(C)C(=O)CN(C)C(=O)[C@H]1C[C@@H]3N[C@@H]3C1)C(=O)N1CCC[C@H](N1)C(=O)OCC(C)(C)C2 [Compound 285],< 5000,100 to 1000,10 to 100,,,
CCn1c(-c2cccnc2[C@H](C)OC)c2c3cc(ccc31)-c1cc(O)cc(c1)C[C@H](NC(=O)[C@H](C(C)C)N(C)C(=O)CN(C)C(=O)[C@@H]1N[C@@H]1C1CCC1)C(=O)N1CCC[C@H](N1)C(=O)OCC(C)(C)C2 [Compound 287],,,,< 5000,10 to 100,100 to 1000
CCn1c(-c2cccnc2[C@H](C)OC)c2c3cc(ccc31)-c1cc(O)cc(c1)C[C@H](NC(=O)[C@H](C(C)C)N(C)C(=O)CN(C)C(=O)[C@H]1N[C@H]1C1CCC1)C(=O)N1CCC[C@H](N1)C(=O)OCC(C)(C)C2 [Compound 288],,,,< 5000,10 to 100,100 to 1000
CCn1c(-c2cccnc2[C@H](C)OC)c2c3cc(ccc31)-c1csc(n1)C[C@H](NC(=O)[C@H](C(C)C)N(C)C(=O)N1CCC[C@H](N(C)C(=O)[C@@H]3CN3)C1)C(=O)N1CCC[C@H](N1)C(=O)OCC(C)(C)C2 [Compound 292],< 5000,10 to 100,1000 to 10000,,,

# — patent publication US11739074B2, “Ras inhibitors” (Revolution Medicines, Inc., priority 2019, dated 2023)
